This passage reports Ki, Ratio Ki and inhibition results from ChEMBL document CHEMBL4257492, “Discovery of 2-aminoimidazole and 2-amino imidazolyl-thiazoles as non-xanthine human adenosine A3 receptor antagonists: SAR and molecular modeling studies” (Medchemcomm, 2018).

The source made the active and inactive calls. No cut-off for these calls is given here.

One assay concerns the target T1, Adenosine receptor A1 (Homo sapiens, UniProt P30542).
T1 sequence (P30542 whole entry): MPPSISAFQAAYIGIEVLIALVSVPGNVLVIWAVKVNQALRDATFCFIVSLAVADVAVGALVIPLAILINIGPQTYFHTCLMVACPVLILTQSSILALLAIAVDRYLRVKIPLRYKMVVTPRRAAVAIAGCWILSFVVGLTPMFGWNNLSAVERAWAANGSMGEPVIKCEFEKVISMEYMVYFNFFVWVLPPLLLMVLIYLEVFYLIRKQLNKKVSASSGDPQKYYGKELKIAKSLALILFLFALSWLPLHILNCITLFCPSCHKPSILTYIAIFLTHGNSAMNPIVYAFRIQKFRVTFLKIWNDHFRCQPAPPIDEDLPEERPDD
Briefly: (§1) Displacement of [3H]CCPA from recombinant human A1 receptor expressed in CHO cell membranes. On the technique in general: In a radioligand displacement assay an active substance lowers the binding of a labelled ligand.

The target in the next assay is T2, Adenosine receptor A3 (Homo sapiens, UniProt P0DMS8).
T2 sequence (P0DMS8 whole entry): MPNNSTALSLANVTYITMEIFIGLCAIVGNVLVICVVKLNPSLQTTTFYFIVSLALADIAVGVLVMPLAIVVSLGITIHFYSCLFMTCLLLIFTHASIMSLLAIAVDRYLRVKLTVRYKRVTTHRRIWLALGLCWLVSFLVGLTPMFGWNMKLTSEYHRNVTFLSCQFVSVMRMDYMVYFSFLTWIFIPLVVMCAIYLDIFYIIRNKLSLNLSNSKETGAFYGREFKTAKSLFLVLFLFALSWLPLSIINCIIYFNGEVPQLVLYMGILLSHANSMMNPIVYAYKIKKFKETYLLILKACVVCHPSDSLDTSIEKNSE
Briefly: (§2) Displacement of [3H]HEMADO from recombinant human A3 receptor expressed in CHO cell membranes.

In the next assay the target is Adenosine receptor A2a (Homo sapiens, UniProt P29274). The assay can be described thus: Displacement of [3H]NECA from recombinant human A2A receptor expressed in CHO cell membranes.
Adenosine receptor A2a, sequence (P29274 whole entry): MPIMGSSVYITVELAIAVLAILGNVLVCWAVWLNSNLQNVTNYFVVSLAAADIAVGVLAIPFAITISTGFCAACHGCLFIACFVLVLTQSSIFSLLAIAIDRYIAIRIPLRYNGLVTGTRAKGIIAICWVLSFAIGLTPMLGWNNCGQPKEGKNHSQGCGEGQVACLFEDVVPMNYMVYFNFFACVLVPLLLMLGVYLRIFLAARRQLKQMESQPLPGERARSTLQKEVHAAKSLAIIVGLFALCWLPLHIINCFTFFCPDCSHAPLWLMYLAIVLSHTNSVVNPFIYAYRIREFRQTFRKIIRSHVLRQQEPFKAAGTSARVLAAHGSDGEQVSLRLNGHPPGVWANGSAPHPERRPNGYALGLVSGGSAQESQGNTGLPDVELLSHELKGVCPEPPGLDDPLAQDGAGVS
The target of another assay is T3, Adenosine receptor A2b (Homo sapiens, UniProt P29275).
T3 sequence (P29275 whole entry): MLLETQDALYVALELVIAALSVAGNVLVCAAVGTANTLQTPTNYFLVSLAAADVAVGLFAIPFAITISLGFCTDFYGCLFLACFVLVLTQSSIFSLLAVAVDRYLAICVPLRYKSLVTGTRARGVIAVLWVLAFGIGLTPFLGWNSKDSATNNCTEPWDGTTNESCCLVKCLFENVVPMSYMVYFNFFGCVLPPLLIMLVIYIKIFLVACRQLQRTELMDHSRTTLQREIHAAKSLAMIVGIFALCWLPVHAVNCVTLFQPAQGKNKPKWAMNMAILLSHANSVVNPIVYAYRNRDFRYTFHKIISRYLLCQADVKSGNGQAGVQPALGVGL
The assay can be described thus: Antagonist activity at recombinant human A2B receptor expressed in CHO cell membranes assessed as inhibition of NECA-stimulated adenylyl cyclase activity. It is filed as functional, cell-based.

The species named for assay [1] is Homo sapiens. The assay can be described thus: Selectivity ratio of Ki for displacement of [3H]CCPA from recombinant human A1 receptor expressed in CHO cell membranes to displacement of [3H]HEMADO from recombinant human A3 receptor expressed in CHO cell membranes.
For assay [2], the species on record is Homo sapiens. The assay can be described thus: Selectivity ratio of Ki for displacement of [3H]NECA from recombinant human A2A receptor expressed in CHO cell membranes to displacement of [3H]HEMADO from recombinant human A3 receptor expressed in CHO cell membranes.
In assay [3] the target is T4, Adenosine receptor A1 (Homo sapiens) (UniProt P30542).
T4 sequence (whole entry): T1 sequence (P30542 whole entry)
The assay is described as §1.

Assay [4] concerns the target T5, Adenosine receptor A2b (Homo sapiens) (UniProt P29275).
T5 sequence (whole entry): T3 sequence (P29275 whole entry)
Briefly: Antagonist activity at recombinant human A2B receptor expressed in CHO cell membranes assessed as inhibition of NECA-stimulated adenylyl cyclase activity up to 30 uM. It is filed as functional, cell-based.

The target of assay [5] is T6, Adenosine receptor A3 (Homo sapiens) (UniProt P0DMS8).
T6 sequence (whole entry): T2 sequence (P0DMS8 whole entry)
Described as §2.

Take `Nc1ncc(C(=O)c2sc(Nc3ccccc3)nc2-c2ccccc2)n1-c1ccc(F)cc1`: the Ki (usually the equilibrium dissociation constant of an inhibitor or competing ligand from its target) at Adenosine receptor A1 is 6.71 µM; on Adenosine receptor A3, 0.305 µM; on Adenosine receptor A2a, 7.41 µM; at Adenosine receptor A2b it was above 10 µM. Further, the Ratio Ki in the assay listed under Homo sapiens [1] and in the assay listed under Homo sapiens [2] was 20 to 40 throughout.

On to `COc1ccc(-n2c(C(=O)c3sc(Nc4ccc(Cl)cc4)nc3C)cnc2N)cc1`, for which the Ki at Adenosine receptor A1 was 33.3 µM; on Adenosine receptor A3 it was 1.6 µM; on Adenosine receptor A2a it was 10.3 µM; on Adenosine receptor A2b it was above 10 µM.

In the case of `Cc1ccc(Nc2nc(C)c(C(=O)c3cnc(N)n3-c3ccc(F)cc3)s2)cc1`, the Ki is 37.5 µM on Adenosine receptor A1, 0.487 µM on Adenosine receptor A3, 12.4 µM at Adenosine receptor A2a and above 10 µM on Adenosine receptor A2b. Further, the Ratio Ki in the assay filed under Homo sapiens [1] and in the assay listed under Homo sapiens [2] was 20 to 40 each time.

Regarding `Cc1ccc(C(=O)c2cnc(N)n2-c2ccc(F)cc2)cc1`, the inhibition result in [3], in assay [4] and in [5] was “inactive” in each case.

For the molecule `Nc1ncc(C(=O)c2ccc(Cl)cc2)n1-c1ccc(F)c(Cl)c1`, the inhibition result in assay [3] and in assay [4] was “inactive” in each case. For the same molecule, the inhibition result in assay [5] was “Active”.

Turning to `Cc1nc(Nc2ccccc2)sc1C(=O)c1cnc(N)n1-c1ccc(F)cc1`, the Ki on Adenosine receptor A1 was 39.2 µM; on Adenosine receptor A3 it was 0.19 µM; at Adenosine receptor A2a, 8.04 µM; at Adenosine receptor A2b it was above 10 µM. In addition, the Ratio Ki in the assay filed under Homo sapiens [1] was 200; in the assay filed under Homo sapiens [2] it was 40.

With `Nc1ncc(C(=O)c2ccc(Cl)cc2)n1-c1ccc(F)cc1`, the inhibition result in assay [3], in [4] and in assay [5] was “inactive” in each case.

As for `Cc1ccc(C(=O)c2cnc(N)n2-c2ccccc2Cl)cc1`, the inhibition result in assay [3] and in assay [4] was “inactive” in each case. The inhibition result in [5] is “Active”.

Consider `CS(=O)(=O)c1ccc(C(=O)c2cnc(N)n2-c2ccccc2)cc1`, for which the inhibition entry in assay [3] and in [4] was “inactive” throughout. The inhibition result in assay [5] was “Active”.

As to `Cc1nc(Nc2ccccc2)sc1C(=O)c1cnc(N)n1-c1ccc(Cl)cc1`, the Ki at Adenosine receptor A1 is 33.5 µM; on Adenosine receptor A3, 0.802 µM; at Adenosine receptor A2a it was 11.2 µM; on Adenosine receptor A2b it was above 10 µM.

For `COc1ccc(-n2c(C(=O)c3sc(Nc4ccccc4)nc3C)cnc2N)cc1`, the Ki at Adenosine receptor A1 was 48.6 µM; on Adenosine receptor A3 it was 0.574 µM; at Adenosine receptor A2a, 13.4 µM; at Adenosine receptor A2b it was above 10 µM. The Ratio Ki in the assay filed under Homo sapiens [1] and in the assay filed under Homo sapiens [2] was 20 to 40 each time.

For `Cc1nc(Nc2ccc(Cl)cc2)sc1C(=O)c1cnc(N)n1-c1ccc(F)cc1`, the Ki at Adenosine receptor A1 is 19.8 µM; at Adenosine receptor A3, 0.871 µM; on Adenosine receptor A2a, 13 µM; at Adenosine receptor A2b it was above 10 µM.

With `Nc1ncc(C(=O)c2ccncc2)n1-c1ccc(C(F)(F)F)cc1`, the inhibition entry in [3] and in [4] was “inactive” throughout.

Turning to `Nc1ncc(C(=O)c2ccncc2)n1-c1ccc(Cl)cc1`, the inhibition entry in [3] and in [4] was “inactive” throughout. Further, in [5], the inhibition entry was “Active”.

On to `COc1ccc(-n2c(C(=O)c3sc(Nc4ccccc4)nc3-c3ccccc3)cnc2N)cc1`, for which the inhibition constant (Ki) was 3.67 µM on Adenosine receptor A1, 0.326 µM on Adenosine receptor A3, 8.84 µM on Adenosine receptor A2a and above 10 µM on Adenosine receptor A2b.

Consider `Nc1ncc(C(=O)c2ccncc2)n1-c1ccc(F)cc1`, for which the inhibition entry in assay [3] and in assay [4] was “inactive” in each case.

Take `CN(C)c1nc(NC(=O)c2ccccc2)sc1C(=O)c1cnc(N)n1-c1ccc(C(F)(F)F)cc1`: the inhibitory constant (Ki) is 19.7 µM on Adenosine receptor A1, 4.92 µM at Adenosine receptor A3, 16.7 µM on Adenosine receptor A2a and above 10 µM on Adenosine receptor A2b.

Regarding `Cc1ccc(-n2c(C(=O)c3sc(N4CCOCC4)nc3-c3ccccc3)cnc2N)cc1`, the Ki on Adenosine receptor A1 was above 100 µM; at Adenosine receptor A3, 17.8 µM; at Adenosine receptor A2a, 34 µM; at Adenosine receptor A2b, above 10 µM.

For `Cc1ccc(C(=O)c2cnc(N)n2-c2cccc(Cl)c2)cc1`, the inhibition entry in assay [3] and in [4] was “inactive” in each case. Further, the inhibition result in [5] was “Active”.

`COc1ccc(C(=O)c2cnc(N)n2-c2ccc(F)cc2)cc1`: the inhibition entry in assay [3], in [4] and in [5] was “inactive” throughout.

For `CN(C)c1nc(NC(=O)c2ccccc2)sc1C(=O)c1cnc(N)n1-c1ccc(Cl)cc1`, the Ki was 25.4 µM at Adenosine receptor A1, 4.32 µM at Adenosine receptor A3, 11.8 µM on Adenosine receptor A2a and above 10 µM at Adenosine receptor A2b.

In the case of `Nc1ncc(C(=O)c2ccc(Cl)cc2)n1-c1ccc(C(F)(F)F)cc1`, the inhibition result in [3] and in assay [4] was “inactive” in each case. For the same molecule, in [5], the inhibition result was “Active”.

For `Cc1ccc(C(=O)c2cnc(N)n2-c2ccc(Cl)cc2)cc1`, the inhibition entry in [3], in assay [4] and in assay [5] was “inactive” in each case.

As for `COc1ccc(-n2c(C(=O)c3sc(N4CCOCC4)nc3-c3ccccc3)cnc2N)cc1`, the Ki at Adenosine receptor A1 is above 100 µM; on Adenosine receptor A3, 13 µM; at Adenosine receptor A2a, above 100 µM; on Adenosine receptor A2b it was above 10 µM.
